Assay results published in ChEMBL document CHEMBL5316282, “Small-Molecule Cyanamide Pan-TEAD·YAP1 Covalent Antagonists” (J Med Chem, 2023).
Values belong to the compound of their own block, whether it stands above or below them. Active and inactive are the calls of the source. The calls are words filed in the database; no cut-off is given here.

What was measured:
[1] = biological target: T1, Transcriptional enhancer factor TEF-1 (Homo sapiens, UniProt P28347); test: Displacement of FAM- labeled YAP1 peptide (60 to 99 residues) from human TEAD1 (209 to 426 residues) expressed in Escherichia coli BL21 (DE3) cells incubated for 24 hrs by fluorescence polarization-based competitive binding assay
[2] = biological target: T2, Transcriptional enhancer factor TEF-4 (Homo sapiens, UniProt Q15562); test: Displacement of FAM- labeled YAP1 peptide (60 to 99 residues) from human TEAD2 (217 to 447 residues) expressed in Escherichia coli BL21 (DE3) cells incubated for 24 hrs by fluorescence polarization-based competitive binding assay
[3] = biological target: T3, Transcriptional enhancer factor TEF-5 (Homo sapiens, UniProt Q99594); test: Displacement of FAM- labeled YAP1 peptide (60 to 99 residues) from human TEAD3 (210 to 427 residues) expressed in Escherichia coli BL21 (DE3) cells incubated for 24 hrs by fluorescence polarization-based competitive binding assay
[4] = biological target: T4, Transcriptional enhancer factor TEF-3 (Homo sapiens, UniProt Q15561); test: Displacement of FAM- labeled YAP1 peptide (60 to 99 residues) from human TEAD4 (217 to 434 residues) expressed in Escherichia coli BL21 (DE3) cells incubated for 24 hrs by fluorescence polarization-based competitive binding assay
[5] = biological target: T2, Transcriptional enhancer factor TEF-4; test: Displacement of FAM- labeled YAP1 peptide (60 to 99 residues) from human TEAD2 (217 to 447 residues) expressed in Escherichia coli BL21 (DE3) cells assessed as maximum inhibition at 0.2 to 100 uM incubated for 24 hrs by fluorescence polarization-based competitive binding assay relative to control; details: dose 0.2-100 µM
[6] = test system: Transcriptional enhancer factor TEF-3 (Homo sapiens), Q15561 [C367S]; test: Displacement of FAM- labeled YAP1 peptide (60 to 99 residues) from human TEAD4 (217 to 434 residues) C367S mutant expressed in Escherichia coli BL21 (DE3) cells at 0.2 to 100 uM incubated for 24 hrs by fluorescence polarization-based competitive binding assay; details: dose 0.2-100 µM
[7] = Inhibition of TEAD in human MDA-MB-468 cells assessed as inhibition of CTGF transcriptional level incubated for 24 hrs by qRT-PCR assay; type: cell-based; details: Homo sapiens, MDA-MB-468, 24 h; read-out: IC50
[8] = test system: MDA-MB-468; test: Inhibition of TEAD in human MDA-MB-468 cells assessed as maximal inhibition of CTGF transcriptional level at 0.01 to 100 uM incubated for 24 hrs by qRT-PCR assay relative to control; type: cell-based; details: dose 0.01-100 µM
[9] = biological target: T4, Transcriptional enhancer factor TEF-3; test: Inhibition of TEAD4 (unknown origin) transfected in human HEK293 cells co-transfected with renilla plasmid assessed as inhibition of transcriptional activity incubated for 24 hrs by dual Glo-luciferase reporter assay; type: cell-based
[10] = biological target: T4, Transcriptional enhancer factor TEF-3; test: Inhibition of TEAD4 (unknown origin) transfected in human HEK293 cells co-transfected with renilla plasmid assessed as maximum inhibition of transcriptional activity at 0.01 to 100 uM incubated for 24 hrs by dual Glo-luciferase reporter assay relative to control; type: cell-based; details: dose 0.01-100 µM
[11] = biological target: T1, Transcriptional enhancer factor TEF-1; test: Inhibition of TEAD1 (unknown origin) transfected in human HEK293 cells co-transfected with renilla plasmid assessed as maximum inhibition of transcriptional activity at 10 uM incubated for 24 hrs by dual Glo-luciferase reporter assay relative to control; type: cell-based
[12] = biological target: T2, Transcriptional enhancer factor TEF-4; test: Inhibition of TEAD2 (unknown origin) transfected in human HEK293 cells co-transfected with renilla plasmid assessed as maximum inhibition of transcriptional activity at 10 uM incubated for 24 hrs by dual Glo-luciferase reporter assay relative to control; type: cell-based
[13] = biological target: T4, Transcriptional enhancer factor TEF-3; test: Displacement of FAM- labeled YAP1 peptide (60 to 99 residues) from human TEAD4 (217 to 434 residues) expressed in Escherichia coli BL21 (DE3) cells at 100 uM incubated for 24 hrs followed by dialysis buffer for 24 hrs
[14] = biological target: T1, Transcriptional enhancer factor TEF-1; test: Inhibition of TEAD1 (unknown origin) transfected in human HEK293 cells co-transfected with renilla plasmid assessed as inhibition of transcriptional activity incubated for 24 hrs by dual Glo-luciferase reporter assay; type: cell-based
[15] = biological target: T2, Transcriptional enhancer factor TEF-4; test: Inhibition of TEAD2 (unknown origin) transfected in human HEK293 cells co-transfected with renilla plasmid assessed as inhibition of transcriptional activity incubated for 24 hrs by dual Glo-luciferase reporter assay; type: cell-based
[16] = biological target: T3, Transcriptional enhancer factor TEF-5; test: Inhibition of TEAD3 (unknown origin) transfected in human HEK293 cells co-transfected with renilla plasmid assessed as inhibition of transcriptional activity incubated for 24 hrs by dual Glo-luciferase reporter assay; type: cell-based
[17] = test system: MDA-MB-468; test: Antiproliferative activity against human MDA-MB-468 cells assessed as reduction in cell viability incubated for 3 days by MTS assay; type: functional, cell-based
[18] = biological target: T5, Transcriptional coactivator YAP1/Transcriptional enhancer factor TEF-1 (Homo sapiens) (UniProt P46937+P28347); test: Inhibition of NanoLuc-tagged TEAD1 (unknown origin)-Halo-Tagged YAP1 (unknown origin) protein-protein interaction transfected in HEK293 cells using furimazine as substrate at 1.1 to 30 uM incubated for 24 hrs by NanoBRET binding assay; type: cell-based; details: dose 1.1-30 µM
[19] = biological target: T6, YAP1-TEAD4 (Homo sapiens) (UniProt P46937+Q15561); test: Inhibition of NanoLuc-tagged TEAD4 (unknown origin)-Halo-Tagged YAP1 (unknown origin) protein-protein interaction transfected in HEK293 cells using furimazine as substrate at 1.1 to 30 uM incubated for 24 hrs by NanoBRET binding assay; type: cell-based; details: dose 1.1-30 µM
[20] = biological target: T5, Transcriptional coactivator YAP1/Transcriptional enhancer factor TEF-1 (Homo sapiens); test: Inhibition of NanoLuc-tagged TEAD1 (unknown origin)-Halo-Tagged YAP1 (unknown origin) protein-protein interaction transfected in HEK293 cells using furimazine as substrate at 10 uM incubated for 2 to 24 hrs by NanoBRET binding assay; type: cell-based; details: time 2-24 hrs, TDE = time-dependent effect
[21] = biological target: T6, YAP1-TEAD4 (Homo sapiens); test: Inhibition of NanoLuc-tagged TEAD4 (unknown origin)-Halo-Tagged YAP1 (unknown origin) protein-protein interaction transfected in HEK293 cells using furimazine as substrate at 10 uM incubated for 2 to 24 hrs by NanoBRET binding assay; type: cell-based; details: time 2-24 hrs, TDE = time-dependent effect
[22] = biological target: T6, YAP1-TEAD4 (Homo sapiens); test: Inhibition of NanoLuc-tagged TEAD4 (unknown origin)-Halo-Tagged YAP1 (unknown origin) protein-protein interaction transfected in HEK293 cells using furimazine as substrate at 0.9 to 30 uM incubated for 24 hrs by NanoBRET binding assay; type: cell-based; details: dose 0.9-30 µM
[23] = biological target: T6, YAP1-TEAD4 (Homo sapiens); test: Inhibition of myc-tagged TEAD4 (unknown origin)-Flag-Tagged YAP1 (unknown origin) protein-protein interaction transfected in HEK293 cells using furimazine as substrate at 1.1 to 11 uM incubated for 24 hrs by pull-down coimmunoprecipitation assay; type: cell-based; details: dose 1.1-11 µM
[24] = Antiproliferative activity against human 90-8 cells assessed as reduction in cell viability incubated for 3 days by MTS assay; type: functional, cell-based; details: 90-8, 72 h
[25] = Antiproliferative activity against human ST88-14 cells assessed as reduction in cell viability incubated for 3 days by MTS assay; type: functional, cell-based; details: ST88-14, 72 h
[26] = test system: SAOS-2; test: Antiproliferative activity against human SAOS-2 cells assessed as reduction in cell viability incubated for 3 days by MTS assay; type: functional, cell-based; details: SAOS-2, 72 h
[27] = Antiproliferative activity against human SaOS-LM7 cells assessed as reduction in cell viability incubated for 3 days by MTS assay; type: functional, cell-based; details: SaOS-LM7, 72 h
[28] = test system: Huh-7; test: Antiproliferative activity against human Huh-7 cells assessed as reduction in cell viability incubated for 3 days by MTS assay; type: functional, cell-based; details: Huh-7, 72 h
[29] = test system: MDA-MB-468; test: Antiproliferative activity against human MDA-MB-468 cells assessed as maximum inhibition of cell viability incubated for 3 days by MTS assay relative to control; type: functional, cell-based; details: time 3.0 day
[30] = Antiproliferative activity against human 90-8 cells assessed as maximum inhibition of cell viability incubated for 3 days by MTS assay relative to control; type: functional; details: time 3 day
[31] = Antiproliferative activity against human ST88-14 cells assessed as maximum inhibition of cell viability incubated for 3 days by MTS assay relative to control; type: functional; details: time 3 day
[32] = test system: SAOS-2; test: Antiproliferative activity against human SAOS-2 cells assessed as maximum inhibition of cell viability incubated for 3 days by MTS assay relative to control; type: functional; details: time 3 day
[33] = Antiproliferative activity against human SaOS-LM7 cells assessed as maximum inhibition of cell viability incubated for 3 days by MTS assay relative to control; type: functional; details: time 3 day
[34] = test system: Huh-7; test: Antiproliferative activity against human Huh-7 cells assessed as maximum inhibition of cell viability incubated for 3 days by MTS assay relative to control; type: functional; details: time 3 day
[35] = biological target: T1, Transcriptional enhancer factor TEF-1; test: Inhibition of TEAD1 (unknown origin) transfected in human HEK293 cells co-transfected with renilla plasmid assessed as maximum inhibition of transcriptional activity at 0.1 to 10 uM incubated for 24 hrs by dual Glo-luciferase reporter assay relative to control; type: cell-based; details: dose 0.1-10 µM
[36] = biological target: T2, Transcriptional enhancer factor TEF-4; test: Inhibition of TEAD2 (unknown origin) transfected in human HEK293 cells co-transfected with renilla plasmid assessed as maximum inhibition of transcriptional activity at 0.1 to 10 uM incubated for 24 hrs by dual Glo-luciferase reporter assay relative to control; type: cell-based; details: dose 0.1-10 µM
[37] = biological target: T4, Transcriptional enhancer factor TEF-3; test: Inhibition of TEAD4 (unknown origin) transfected in human HEK293 cells co-transfected with renilla plasmid assessed as maximum inhibition of transcriptional activity at 0.1 to 10 uM incubated for 24 hrs by dual Glo-luciferase reporter assay relative to control; type: cell-based; details: dose 0.1-10 µM

T3 sequence (Q99594 whole entry, the tested form may be a part): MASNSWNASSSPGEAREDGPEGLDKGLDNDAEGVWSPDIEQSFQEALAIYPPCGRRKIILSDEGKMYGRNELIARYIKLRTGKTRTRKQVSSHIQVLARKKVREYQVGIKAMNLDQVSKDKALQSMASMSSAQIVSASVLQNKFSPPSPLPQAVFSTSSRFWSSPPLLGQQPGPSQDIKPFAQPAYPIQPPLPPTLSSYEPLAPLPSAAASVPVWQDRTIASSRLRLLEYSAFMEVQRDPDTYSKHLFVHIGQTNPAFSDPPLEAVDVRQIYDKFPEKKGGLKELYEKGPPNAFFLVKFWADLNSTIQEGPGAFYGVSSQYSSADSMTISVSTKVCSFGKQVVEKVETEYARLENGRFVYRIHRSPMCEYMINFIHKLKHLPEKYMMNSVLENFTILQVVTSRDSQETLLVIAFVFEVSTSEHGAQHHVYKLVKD
T1 sequence (P28347 whole entry, the tested form may be a part): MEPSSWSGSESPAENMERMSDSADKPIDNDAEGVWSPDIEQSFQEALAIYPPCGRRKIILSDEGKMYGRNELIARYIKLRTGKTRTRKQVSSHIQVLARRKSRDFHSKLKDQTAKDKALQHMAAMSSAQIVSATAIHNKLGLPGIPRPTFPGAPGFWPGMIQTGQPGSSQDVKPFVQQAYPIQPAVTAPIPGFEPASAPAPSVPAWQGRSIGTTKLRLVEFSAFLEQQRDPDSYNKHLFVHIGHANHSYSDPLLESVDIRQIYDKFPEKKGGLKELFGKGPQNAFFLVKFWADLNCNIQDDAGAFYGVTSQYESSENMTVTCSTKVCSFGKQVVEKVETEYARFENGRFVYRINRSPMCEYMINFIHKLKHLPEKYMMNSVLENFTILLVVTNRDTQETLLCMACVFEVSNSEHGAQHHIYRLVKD
T4 sequence (Q15561 whole entry, the tested form may be a part): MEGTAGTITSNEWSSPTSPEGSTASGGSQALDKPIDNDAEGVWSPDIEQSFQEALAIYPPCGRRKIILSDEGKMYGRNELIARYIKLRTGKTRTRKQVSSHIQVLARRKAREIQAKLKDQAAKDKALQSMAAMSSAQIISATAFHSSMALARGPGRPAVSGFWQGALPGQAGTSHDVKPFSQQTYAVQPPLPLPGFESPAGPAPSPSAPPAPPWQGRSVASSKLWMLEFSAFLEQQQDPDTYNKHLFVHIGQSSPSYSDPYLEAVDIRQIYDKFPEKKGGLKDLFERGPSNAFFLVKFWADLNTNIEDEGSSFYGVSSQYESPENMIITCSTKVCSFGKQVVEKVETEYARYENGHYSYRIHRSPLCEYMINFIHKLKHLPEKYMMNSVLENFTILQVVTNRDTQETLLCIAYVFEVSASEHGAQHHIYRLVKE
T2 sequence (Q15562 whole entry, the tested form may be a part): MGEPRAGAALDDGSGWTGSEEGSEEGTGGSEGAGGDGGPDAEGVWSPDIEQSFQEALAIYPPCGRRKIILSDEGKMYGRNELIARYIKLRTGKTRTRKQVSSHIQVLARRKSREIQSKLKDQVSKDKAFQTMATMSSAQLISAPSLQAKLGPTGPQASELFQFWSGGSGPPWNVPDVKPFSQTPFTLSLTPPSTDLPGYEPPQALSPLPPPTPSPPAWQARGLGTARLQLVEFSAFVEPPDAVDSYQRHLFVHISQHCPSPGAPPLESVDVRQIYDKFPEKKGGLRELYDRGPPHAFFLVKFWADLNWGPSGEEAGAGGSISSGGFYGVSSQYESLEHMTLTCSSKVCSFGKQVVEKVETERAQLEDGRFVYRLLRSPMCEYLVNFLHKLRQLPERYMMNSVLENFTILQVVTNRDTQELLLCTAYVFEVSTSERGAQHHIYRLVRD
Chain of Transcriptional enhancer factor TEF-3 (Homo sapiens), Q15561 [C367S] (Q15561 whole entry C367S, the tested form may be a part): as the sequence (Q15561 whole entry, the tested form may be a part) above, with C367S counted along it
T5 sequence (P28347 whole entry, looked up): as the sequence (P28347 whole entry, the tested form may be a part) above
T5 sequence (P46937 whole entry, looked up): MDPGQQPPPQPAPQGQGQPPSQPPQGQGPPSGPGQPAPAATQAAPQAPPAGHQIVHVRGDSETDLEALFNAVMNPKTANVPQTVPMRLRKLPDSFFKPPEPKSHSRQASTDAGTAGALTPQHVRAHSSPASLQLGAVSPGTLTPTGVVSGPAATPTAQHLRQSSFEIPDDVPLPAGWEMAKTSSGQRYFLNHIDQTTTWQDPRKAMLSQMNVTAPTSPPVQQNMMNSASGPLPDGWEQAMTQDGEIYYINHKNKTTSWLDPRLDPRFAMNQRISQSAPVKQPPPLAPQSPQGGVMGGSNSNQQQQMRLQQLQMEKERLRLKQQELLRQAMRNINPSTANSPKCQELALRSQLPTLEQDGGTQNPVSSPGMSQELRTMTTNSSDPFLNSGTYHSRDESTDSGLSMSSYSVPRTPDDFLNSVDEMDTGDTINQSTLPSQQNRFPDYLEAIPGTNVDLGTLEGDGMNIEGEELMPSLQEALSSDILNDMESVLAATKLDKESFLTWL

IC50 ([1]; read-out: IC50): 300 nM
IC50 [2]: 1700 nM
IC50 [3]: Not Active
IC50 ([4]; read-out: IC50): 200 nM
Imax [5]: 42%
inhibition [6]: inactive
IC50 [7]: 300 nM
IC50 ([9]; read-out: IC50): 300 nM
Imax [10]: 41.3%
inhibition [11]: inactive
inhibition [12]: 50%
SMILES: COc1ccc2c(c1Nc1cccc(C(F)(F)F)c1)CN(C#N)C2
Imax [8]: 45.3%

IC50 ([1]; read-out: IC50): 900 nM
IC50 [2]: 1200 nM
IC50 [3]: Not Active
IC50 ([4]; read-out: IC50): 1100 nM
Imax [5]: 34%
inhibition [6]: inactive
inhibition [13]: Active
IC50 [7]: 600 nM
IC50 ([9]; read-out: IC50): 5000 nM
Imax [10]: 46.6%
inhibition [11]: 40%
inhibition [12]: 40%
IC50 [14]: 5100 nM
IC50 [15]: 2700 nM
IC50 [16]: 2200 nM
IC50 [17]: Not Active
inhibition [18]: Active
inhibition [19]: Active
inhibition [20]: Tde
inhibition [21]: Tde
inhibition [22]: Active
inhibition [23]: Dose-Dependent Effect
IC50 [28]: 100 nM
Imax [35]: 51.2%
Imax [36]: 42.7%
Imax [37]: 61.8%
SMILES: N#CN1Cc2cccc(Nc3cccc(C(F)(F)F)c3)c2C1
Imax [8]: 65.7%
IC50 [24]: 3500 nM
IC50 [25]: 30 nM
IC50 [26]: 100 nM
IC50 [27]: 200 nM
Imax [29]: inactive
Imax [30]: 51.4%
Imax [31]: 31%
Imax [32]: 53.4%
Imax [33]: 60.7%
Imax [34]: 48.3%

IC50 [1]: Not Active
IC50 [2]: 7500 nM
IC50 [3]: Not Active
IC50 [4]: Not Active
Imax [5]: 20%
IC50 [7]: 2200 nM
IC50 ([9]; hek293): Not Active
SMILES: N#CN1CC2CCCC(Nc3ccccc3C(F)(F)F)C2C1 (stereo not given)
Imax [8]: 41.1%

IC50 ([1]; read-out: IC50): 200 nM
IC50 [2]: 800 nM
IC50 [3]: Not Active
IC50 [4]: Not Active
Imax [5]: 33%
IC50 [7]: 1500 nM
IC50 ([9]; read-out: IC50): 2100 nM
SMILES: N#CN1Cc2cccc(Nc3ccc(C(F)(F)F)cc3)c2C1
Imax [8]: 59.6%
